Experimental data published in a melting point compilation (Tetko et al.; mined from patent text by program, amines drawn as free bases though some values may be those of a salt).

First: C(#Cc1ccncc1)c1ccccc1
Second: Oc1nc2cccnc2n1Cc1ccccc1
The melting point of the first is lower: 51 to 53 °C for the first, 177 to 179 °C for the second.

Compared with `O=C(Nc1nnn(CC(F)(F)F)n1)C1c2ccccc2Oc2ccccc21`, `N#CC1=C(c2ccccc2)Nc2n[nH]cc2C1c1ccccc1Cl` (stereo not given) is lower in melting point: 209 to 210 °C for the first, 158 °C for the second.

First: COc1ccc(-c2cnc(SC(F)(F)C(F)F)nc2-c2ccc(OC)cc2)cc1
Second: Oc1ccc(-c2nc3ccc(O)cc3c(-c3ccc(F)cc3)c2Cl)cc1
The melting point of the first is lower: 118 to 120 °C for the first, 295 to 296 °C for the second.

First: Fc1ccc(C(c2ccc(F)cc2)C2CCN(CCCOc3c(Cl)cccc3Cl)CC2)cc1
Second: OC(c1ccc(F)cc1)(c1ccc(F)cc1)C1CCN(CCCOc2ccc(Cl)cc2)CC1
The melting point of the first is higher: 102 to 103 °C for the first, 92 to 93 °C for the second.

First: CCOC(=O)c1[nH]c(-n2ccc(OCc3ccccc3)cc2=O)nc1C
Second: CCOC(=O)c1cn(Cc2ccccc2)nc1OCc1ccc(OCc2nc(-c3ccco3)oc2C)c(OC)c1
The melting point of the first is higher: 135 to 136 °C for the first, 117 to 118 °C for the second.

First: CC(=O)Nc1cc2c(s1)CCCN(CCCCN1CCN(c3ncccn3)CC1)C2=O
Second: Cc1ccccc1N1CCN(Cc2c[nH]c3ncccc23)CC1
The melting point of the first is lower: 158 to 161 °C for the first, 174 to 176 °C for the second.

Compared with `Cc1cc(Cl)c2ccc(Cl)cc2c1CCC=O`, `Cc1cnc(C(=O)c2[nH]c3ccc(Cl)cc3c2CC(=O)O)cc1C` is higher in melting point: 104 to 106 °C for the first, 245 to 246 °C for the second.

Compared with `CCC(=O)c1ncc(Nc2cc(C)[nH]n2)nc1Nc1ccc(F)cc1`, `COC(=O)c1cn(-c2ccnc3ccccc23)c2cc(F)ccc12` is lower in melting point: 208 to 210 °C for the first, 186 °C for the second.

First: O=C1OCc2cc(CO)ccc21
Second: CCc1cccc(C2=NC(C)(C)CO2)c1C
The melting point of the first is higher: 126 °C for the first, 96 to 98 °C for the second.

Compared with `FC1=CC2NC(=S)CCC2C=C1c1cccnc1` (stereo not given), `CC(=O)c1cccc(Oc2ncccc2C(=O)NCC2CCC(C(C)(C)O)CC2)c1` (stereo not given) is lower in melting point: 248 °C for the first, 105 to 107 °C for the second.

First: COc1ccc(-c2ccc(C=O)cc2)cc1OC1CCCC1
Second: N#Cc1cc(-c2ccc3c(c2)C2(CCCC2)C(=O)N3)ccc1F
The melting point of the first is lower: 86.5 to 87.5 °C for the first, 264 to 266 °C for the second.

First: O=C(O)[C@H](Cc1c[nH]c2ccccc12)NS(=O)(=O)c1ccc(N2CCC(c3ccccc3)CC2)cc1
Second: CC(=O)N1CCC(c2nn(-c3ccccc3)c3cc(Br)ccc23)CC1
The melting point of the first is lower: 103 to 107 °C for the first, 136 to 138 °C for the second.

First: CCn1c2ccccc2c2cc(C=C(C#N)c3cc(C(F)(F)F)cc(C(F)(F)F)c3)ccc21
Second: FC(F)(F)c1cc(NC(=S)N[C@@H]2CCCC[C@H]2NCc2ccccc2)cc(C(F)(F)F)c1
The melting point of the first is higher: 164 to 165 °C for the first, 140 to 141 °C for the second.

First: CSc1nc(CC2CCN(c3ccccc3)CC2)nc(C(=O)NCC(=O)O)c1O
Second: O=C(O)C1=C(S(=O)(=O)c2ccccc2)CC2CC(=O)C12 (stereo not given)
The melting point of the first is lower: 156 to 157 °C for the first, 205 to 207 °C for the second.

First: CCNc1nc(CC)c(-c2ccncc2)s1
Second: Cc1cccc(-c2nc(CC(=O)O)sc2-c2ccnc(N)c2)c1
The melting point of the first is lower: 126 to 128 °C for the first, 132 to 133 °C for the second.

First: O=C(Cc1ccccc1)Nc1ccnc(NC(=O)NCc2ccccn2)c1
Second: O=[N+]([O-])c1ccc(-c2ccc(-c3ccc([N+](=O)[O-])cc3OCc3ccccc3)o2)c(OCc2ccccc2)c1
The melting point of the first is lower: 219 to 220 °C for the first, 233 to 237 °C for the second.

First: CN(C)C(=O)Nc1ccc(Cl)c(N)n1
Second: CCOC(=O)c1cc2c3n(ccc-2n1)CC(C)=N3
The melting point of the first is lower: 139 to 141 °C for the first, 201 to 203 °C for the second.

First: O=C(c1ccc(Cl)cc1)c1ccc(CBr)cc1
Second: O=C(CCl)c1ccc(-c2ccc(S(=O)(=O)C(F)F)cc2)cc1
The melting point of the first is lower: 103 to 104 °C for the first, 157 to 159 °C for the second.

First: Nc1ncc2[nH]c3ccccc3c2n1
Second: CCC(C)N(C)C(=O)c1cc2ccccc2c(-c2cccs2)n1 (stereo not given)
The melting point of the first is higher: 258 to 260 °C for the first, 146 °C for the second.

Compared with `CCOC(=O)CN1CSCCC(N2C(=O)c3ccccc3C2=O)C1=O` (stereo not given), `CCOC(=O)Cc1ccc(N2Cc3ccccc3C2=N)cc1` is higher in melting point: 192 to 194 °C for the first, 204 to 206 °C for the second.

First: O=c1ccc(-c2ccsc2)n[nH]1
Second: C=CCN1C(=O)C2CC2(c2ccc(N)cc2)C1=O (stereo not given)
The melting point of the first is higher: 169 to 171 °C for the first, 104 to 106 °C for the second.

First: Nc1nc2ccccc2n1CCCN1CCN(C(c2ccccc2)c2ccccc2)CC1
Second: Cc1cc2nc(C(C)(C)C(=O)O)cn2nc1OCCCN1CCC(OC(c2ccccc2)c2ccccc2)CC1
The melting point of the first is higher: 229 °C for the first, 122 °C for the second.

Compared with `CC(=O)c1ccc2c(c1)C(C)(C)C(O)CC2(C)C` (stereo not given), `Cc1ccc(-n2nc(C)c(C(=O)O)n2)cc1` is higher in melting point: 121 to 124 °C for the first, 230 to 232 °C for the second.

First: CO/N=C(\C(=O)OC)c1nsc(NC(=O)OC)n1
Second: COc1nc2cc([N+](=O)[O-])c(C)c(C(=O)Cl)c2nc1OC
The melting point of the first is lower: 158 to 161 °C for the first, 162 to 164 °C for the second.

First: CCOc1ccc(-n2c(N)cc(=O)nc2SC)cc1
Second: CCN1C[C@@H](SCc2ccc(OC)cc2)C[C@H]1C(N)=O
The melting point of the first is higher: 177 to 181 °C for the first, 124 to 125 °C for the second.

`Cc1c(CO)sc2cc(Br)ccc12` and `CC(O)c1cc(Br)ccc1N` (stereo not given) fall in the same range of melting point: 95 to 96 °C for the first, 95 to 96 °C for the second.

First: Cc1ccc(N)cc1S(=O)(=O)Nc1onc(C)c1C
Second: CCn1c(C(C)NS(=O)(=O)c2ccc(Cl)c(Cl)c2)cnc1Oc1ccc2cc[nH]c2c1 (stereo not given)
The melting point of the first is higher: 204 to 205 °C for the first, 150 to 154 °C for the second.

First: CN1CCN(c2cc3nc(C(C)(C)C)sc3cc2N=C=O)CC1
Second: COc1ccc(C2(C#N)CCC(=O)CC2)c2nc(C(C)C)oc12
The melting point of the first is higher: 124 to 126 °C for the first, 118 °C for the second.

First: O=C(O)c1ccccc1CN1C(=O)C2(COc3cc4c(cc32)OCO4)c2ccccc21 (stereo not given)
Second: COC(=O)c1cccc(Cc2ccc3[nH]c(-c4ccc5c(c4)OCO5)nc3c2)c1
The melting point of the first is higher: greater than 250 °C for the first, 122 to 124 °C for the second.

Compared with `CSC(=C[N+](=O)[O-])NCCCCc1ccccn1`, `CCC(=CC(CNC(=O)c1cccnc1C)=NO)C(C)[N+](=O)[O-]` (stereo not given) is higher in melting point: 78 °C for the first, 128 to 129 °C for the second.

First: CC(C)CN(CC(C)C)c1ccc(C(=O)c2ccccc2)cc1[N+](=O)[O-]
Second: O=C(NNC(=O)c1cccc([N+](=O)[O-])c1)c1cccc([N+](=O)[O-])c1
The melting point of the first is lower: 80 to 81 °C for the first, 245 °C for the second.

First: CCOc1ncc(S(=O)(=O)N2CCN(CC)CC2)cc1C(=O)Nc1c(C(N)=O)nn(CCOC)c1CC
Second: CCCCCCN1CC[C@H](NC(=O)c2cc(Cl)c(N)c3c2OCC3)[C@H](O)C1 (relative stereo)
The melting point of the first is higher: 156 °C for the first, 130 °C for the second.

First: CCCCCCCCCCCCCCCC(=O)Nc1c(C)cccc1C(=O)O
Second: COC(=O)CCCCCCCCOC1OC(CO)C(O)C(OC2OC(CO)C(O)C(O)C2OC2OC(C)C(O)C(O)C2O)C1NC(C)=O (stereo not given)
The melting point of the first is lower: 106 to 113 °C for the first, 195 °C for the second.

Compared with `CC(Cl)c1cc(F)ccc1Oc1nc2ccc(-n3cc(-c4ccccc4)nn3)cc2cc1Cc1ccccc1` (stereo not given), `C=Cc1ccc2nc(-c3ccccc3)c(-c3ccccc3)nc2c1` is lower in melting point: 151 to 152 °C for the first, 122 to 123 °C for the second.

First: CCOC(=O)c1c(CN2CCC(C(=O)OCC)CC2)nc2sc3c(c2c1-c1ccc(OC)c(OC)c1)CCN(C(=O)c1ccc(Cl)cc1)C3
Second: CN(C(=O)CCc1ccc(CN2CCC3(CCCC3)CC2)cc1)c1ccc(-c2ccc(Cl)cc2)cc1
The melting point of the first is lower: 99 to 101 °C for the first, 119 °C for the second.

First: CN(C)Cc1cc(Cl)ccc1OCCN(C)Cc1ccc(C(N)=O)cc1
Second: Cc1ccsc1C(=O)Cc1ccc(Cl)cc1[N+](=O)[O-]
The melting point of the first is higher: 108 to 109 °C for the first, 105 to 107 °C for the second.

First: CCc1cn(-c2nccs2)c2c1C(=O)CC(C)(C)C2
Second: CCOC(=O)c1cn(C2CC2)c2c(OC(F)F)c(Br)ccc2c1=O
The melting point of the first is lower: 58 to 60 °C for the first, 253 °C for the second.

First: Cc1cc(-c2nc3cc(NC(=O)c4c(C(=O)N5CCC5)cnn4C)ccn3n2)ccn1
Second: COc1cc2c(Nc3ccc(Sc4nccn4C)c(Cl)c3)c(C#N)cnc2cc1-c1csc(CN2CCOCC2)c1
The melting point of the first is lower: 210 to 211 °C for the first, 238 to 240 °C for the second.

First: CC(C)[C@](C)(S)C(=O)O
Second: CC(C)(C)OC(=O)N[C@H](CO)C(=O)OC(c1ccccc1)c1ccccc1
The melting point of the first is lower: 78 to 80 °C for the first, 116 to 117 °C for the second.

First: COc1cccc(CSCCNC(=O)c2c(Cl)cccc2OC)c1
Second: COc1ccc(Sc2c(O)c3c(Cl)cc(Cl)cc3[nH]c2=O)cc1
The melting point of the first is lower: 58 to 59 °C for the first, 280 to 282 °C for the second.

`O=c1[nH]c2cc(Cl)ccc2n(CCO)c1=O` and `Cn1cc2c(n1)Nc1ccc(Cl)cc1NC2=S` cannot be ordered by melting point: 295 °C for the first, greater than 260 °C for the second.

First: COc1ccc(OC)c2c(N=[N+]=[N-])ccnc12
Second: COc1cc2sc(C(=N)NO)cc2c(F)c1OC
The melting point of the first is lower: 106 °C for the first, 186 to 190 °C for the second.

First: Nc1nc2cccnc2c2c1nc(CCCO)n2CC1(O)CCOCC1
Second: O=C1NC(NCC2CC2)=N/C1=C\c1c[nH]c2ncc(N3CCOCC3)cc12
The melting point of the first is lower: 237 to 238 °C for the first, 331 °C for the second.

First: COC(=O)CC(Oc1c(Br)cc(-c2c3ccccc3c(Br)c3sc4ccccc4c23)cc1Br)C(=O)OC (stereo not given)
Second: NC(=O)c1cc(-c2cccc3cc(Cc4cc(F)cc(Cl)c4)sc23)ccc1F
The melting point of the first is lower: 118 to 121 °C for the first, 169 to 170 °C for the second.

Compared with `Cn1ncnc1COc1nc2c(cc1-c1ccoc1)nnn2-c1c(F)cccc1F`, `Nc1ncnc2c1c(-c1cccc(F)c1)nn2Cc1oc2ccccc2c(=O)c1-c1ccccc1` is higher in melting point: 166 to 169 °C for the first, 244 to 247 °C for the second.

Compared with `O=C(F)OC12CC3CC(CC(C3)C1)C2`, `COc1ccccc1SCC1SCCN1C(=S)CC(C)=O` (stereo not given) is higher in melting point: 32 to 33 °C for the first, 62 to 64 °C for the second.

First: Cc1cc(C)c(C2C(=O)N(N(C)C)C3(CCN(N(C)C)CC3)C2=O)c(C)c1 (stereo not given)
Second: O=C1C2=C(CCCC2)C(=O)N1CCCCCCN1C(=O)C2=C(CCCC2)C1=O
The melting point of the first is lower: 80 to 85 °C for the first, 123 to 124 °C for the second.

First: C=Cc1ccc(COc2ccc(CCl)cc2)cc1
Second: CC(C)c1ccc(-c2nc(=O)n(Cc3ccccc3)c3ccc(OCC#N)cc23)cc1
The melting point of the first is lower: 110 to 112 °C for the first, 139 to 141 °C for the second.

First: C#Cc1ccc2c(c1)C(CCOCCOCCOC)(CCOCCOCCOC)c1cc(C#C)ccc1-2
Second: O=C(c1ccc(F)cc1)c1cccc(C#Cc2cccc(C(=O)c3ccc(F)cc3)c2)c1
The melting point of the first is lower: 68 °C for the first, 205 to 206 °C for the second.

First: O=C(c1ccc2[nH]ccc2c1)N1CCN(CCc2ccccc2)CC1
Second: Clc1ccc2cc(OC3CCCCO3)ccc2n1 (stereo not given)
The melting point of the first is lower: 105 to 108 °C for the first, 122 to 124 °C for the second.
